Reference: publication PMC10233823, “Conjugates of Aminoglycosides with Stapled Peptides as a Way to Target Antibiotic-Resistant Bacteria” (ACS Omega, 2023)
≈ marks a conversion by molar mass, not a printed value. Like-named read-outs stand apart in the source and are kept apart here. Ends that are not written are not given here. Peptide text beside a SMILES is read from it. * marks the point of attachment. X2 = NC[C@@H]1O[C@H](O[C@H]2[C@@H](O)[C@H](O[C@@H]3[C@@H](O)[C@H](N)C[C@H](N)[C@H]3O[C@H]3O[C@H](CN)[C@@H](O)[C@H](O)[C@H]3N)O[C@@H]2CS*)[C@H](N)[C@@H](O)[C@@H]1O

Legend:
E. coli WR 3551/98 [1] = experiment: microbe, parasite or virus in culture; format: cell-based, Escherichia coli; settings: for MIC: E. coli WR 3551/98 (AMK-resistant), MHB, 20 h, 37 °C with shaking, OD600
Protocol: (§1) The antibacterial activity of the conjugates was assessed by determining their minimum inhibitory concentration (MIC) and minimum bactericidal concentration (MBC) against Gram-negative E. coli (K12 MG 1655 and WR 3551/98) and Gram-positive S. aureus (ATCC 29213 and ATCC BAA1720 MRSA) strains (Table 1, Figures S16–S23).
(§2) The MIC values were determined as follows. Bacteria were first cultured overnight in 2 mL of lysogeny broth (LB, VWR Chemicals) at 37 °C with shaking. Next, 20 μL of overnight culture was transferred into 2 mL of […] (MHB, Difco) medium and further cultured at 37 °C with shaking until the culture reached OD600 = 0.3. Subsequently, the culture was diluted 1:100 in a fresh MHB medium, and aliquots of 50 μL were mixed with 50 μL of previously prepared dilutions of the tested compound in MHB on a transparent flat-bottom 96-well plate (Nest). The plate was then sealed with transparent foil (Titer-Tops) and incubated for 20 h, at 37 °C with shaking. Following incubation, optical density at 600 nm was measured using a Tecan Sunrise plate reader. Growth inhibition was determined by comparing the given sample with untreated culture (growth control—GC) with MHB alone (sterility control—SC) as an additional reference. The experiment was conducted in at least two biological replicates of two technical replicates each. Statistical significance was determined by the two-way ANOVA test using GraphPad Prism 9 software.

E. coli K12 MG1655 [2] = experiment: microbe, parasite or virus in culture; format: cell-based, Escherichia coli; settings: MHB, 20 h, 37 °C with shaking, OD600, at least two biological replicates of two technical replicates
Protocol: as §1, §2

S. aureus ATCC 29213 [3] = experiment: microbe, parasite or virus in culture; format: cell-based, Staphylococcus aureus; settings: 20 h, 37 °C with shaking, OD600
Protocol: as §1, §2

[4] = system: S. aureus ATCC BAA1720 MRSA; experiment: microbe, parasite or virus in culture; format: cell-based, Staphylococcus aureus; settings: S. aureus ATCC BAA1720 MRSA (NEO-resistant), MHB, 20 h, 37 °C with shaking, OD600
Protocol: as §1, §2

S. aureus ATCC 29213 [5] = experiment: microbe, parasite or virus in culture; format: cell-based, Staphylococcus aureus; settings: 24 h, 37 °C
Protocol: as §1
(§3) The MBC values were determined by diluting wells from the MIC experiment plate in fresh MHB medium. Dilutions of 10-, 100-, and 1000-times were prepared for the MIC well and up to two-folds higher than MIC concentrations of a given compound. Dilutions were made on a transparent flat-bottom 96-well plate (Nest), which was then sealed and incubated for 24 h, at 37 °C with shaking. The growth of a given sample well was compared with GC and SC controls.

[6] = system: S. aureus ATCC BAA1720 MRSA; experiment: microbe, parasite or virus in culture; format: cell-based, Staphylococcus aureus; settings: MIC wells diluted in fresh MHB, 24 h, 37 °C
Protocol: as §1, §3

E. coli WR 3551/98 [7] = experiment: microbe, parasite or virus in culture; format: cell-based, Escherichia coli; settings: 24 h, 37 °C
Protocol: as §1, §3

E. coli K12 MG1655 [8] = experiment: microbe, parasite or virus in culture; format: cell-based, Escherichia coli; settings: MIC wells diluted 10-, 100-, 1000-times in fresh MHB, 24 h, 37 °C, bactericidal if no growth at 100- and 1000-times dilutions
Protocol: as §1, §3

S. aureus ATCC 29213 [9] = experiment: Checkerboard synergy test; format: cell-based, Staphylococcus aureus; settings: MIC not determined, tested range up to 128 μM
Protocol: The synergy between the compounds was assessed using the checkerboard method in a similar way as mentioned in our previous study.[79],[80] Bacteria were first cultured overnight in 2 mL of LB (VWR Chemicals) at 37 °C with shaking. Next, 20 μL of overnight culture was transferred into 2 mL of MHB medium and further cultured at 37 °C with shaking until the culture reached OD600 = 0.3. Subsequently, culture was diluted 1:200 in a fresh MHB medium, and aliquots of 90 μL were mixed with 10 μL of previously prepared dilutions of tested compounds in MHB on a transparent flat-bottom 96-well plate (Nest). The plate was then sealed with transparent adhesive foil (Titer-Tops) and incubated for 20 h, at 37 °C with shaking. Following incubation, optical density at 600 nm was measured using the Tecan Sunrise plate reader. Growth inhibition was determined by comparing the given sample with untreated culture (GC) with MHB alone (SC) as an additional reference. The FIC index was calculated for the first cell within each row and column where growth inhibition was observed. The following formula was used [drawing 1] Ca, Cb—concentration of the agent in combination, and MICa, MICb—MICs for agent a and agent b alone.
Then, the median FIC was determined for the entire checkerboard. In addition, the minimal and maximal values were distinguished (Table 2). […]

[10] = MIC wells diluted in fresh MHB, read-out: MBC
[11] = Staphylococcus aureus, ATCC29213, MHB
[12] = Staphylococcus aureus, ATCC29213, MIC wells diluted in fresh MHB, read-out: MBC
[13] = Escherichia coli, WR3551/98, MIC wells diluted in fresh MHB, read-out: MBC
[14] = Escherichia coli, read-out: MBC

Compound	MIC (E. coli WR 3551/98 [1])	MIC (E. coli K12 MG1655 [2])	MIC (S. aureus ATCC 29213 [3]; MHB)	MIC [4]	MBC (S. aureus ATCC 29213 [5]; [10])	MBC [6]	MBC (E. coli K12 MG1655 [8]; read-out: MBC)	MBC (E. coli WR 3551/98 [7]; [10])	also measured
CC[C@H](C)[C@H](NC(=O)[C@H](CCCNC(=N)N)NC(=O)[C@H](CCCCN)NC(=O)[C@H](CC(C)C)NC(=O)[C@H](CC(C)C)NC(=O)CNC(=O)CCCCCCCCc1cn(C[C@H]2O[C@H](O[C@@H]3[C@@H](O)[C@H](O[C@H]4O[C@H](CN)[C@@H](O)[C@H](O)[C@H]4O)[C@@H](N)C[C@H]3NC(=O)[C@@H](O)CCN)[C@H](O)[C@@H](N)[C@@H]2O)nn1)C(=O)N[C@@H](CCCCN)C(=O)N[C@H](C(=O)N[C@@H](CC(C)C)C(=O)N[C@@H](CC(C)C)C(N)=O)[C@@H](C)O [AMK-anoplin] (HELM PEPTIDE1{[NCC[C@H](O)C(=O)N[C@@H]1C[C@H](N)[C@@H](O[C@H]2O[C@H](CN)[C@@H](O)[C@H](O)[C@H]2O)[C@H](O)[C@H]1O[C@H]1O[C@H](Cn2cc(CCCCCCCCC(=O)[*:2])nn2)[C@@H](O)[C@H](N)[C@H]1O].G.L.L.K.R.I.K.T.L.L.[am]}$$$$V2.0)	16 µM (≈ 30.9 µg/mL)	16 µM (≈ 30.9 µg/mL)	32 µM (≈ 61.7 µg/mL)	>32 µM	>32 µM	>32 µM	16 µM (≈ 30.9 µg/mL)	–	MBC (E. coli WR 3551/98 [7]; MIC wells diluted in fresh MHB): 16 to 32 µM
CC[C@H](C)[C@H](NC(=O)[C@H](CCCNC(=N)N)NC(=O)[C@H](CCCCN)NC(=O)[C@H](CC(C)C)NC(=O)[C@H](CC(C)C)NC(=O)CNC(=O)[C@@H](N)CSSC[C@H]1O[C@@H](O[C@@H]2[C@@H](O)[C@H](N)C[C@H](N)[C@H]2O[C@H]2O[C@H](CN)[C@@H](O)[C@H](O)[C@H]2N)[C@H](O)[C@@H]1O[C@H]1O[C@@H](CN)[C@@H](O)[C@H](O)[C@H]1N)C(=O)N[C@@H](CCCCN)C(=O)N[C@H](C(=O)N[C@@H](CC(C)C)C(=O)N[C@@H](CC(C)C)C(N)=O)[C@@H](C)O [NEO-SS-anoplin] (H-C(X2)GLLKRIKTLL-NH2)	8 µM (≈ 15.1 µg/mL)	8 µM (≈ 15.1 µg/mL)	4 µM (≈ 7.54 µg/mL)	>32 µM	8 µM (≈ 15.1 µg/mL)	>32 µM	8 µM (≈ 15.1 µg/mL)	16 µM (≈ 30.2 µg/mL)	–
CC[C@H](C)[C@H](NC(=O)[C@H](CCCNC(=N)N)NC(=O)[C@H](CCCCN)NC(=O)[C@H](CC(C)C)NC(=O)[C@H](CC(C)C)NC(=O)CNC(=O)CCCCCCCCc1cn(C[C@H]2O[C@@H](O[C@@H]3[C@@H](O)[C@H](N)C[C@H](N)[C@H]3O[C@H]3O[C@H](CN)[C@@H](O)[C@H](O)[C@H]3N)[C@H](O)[C@@H]2O[C@H]2O[C@@H](CN)[C@@H](O)[C@H](O)[C@H]2N)nn1)C(=O)N[C@@H](CCCCN)C(=O)N[C@H](C(=O)N[C@@H](CC(C)C)C(=O)N[C@@H](CC(C)C)C(N)=O)[C@@H](C)O [NEO-anoplin] (HELM PEPTIDE1{[NC[C@@H]1O[C@H](O[C@H]2[C@@H](O)[C@H](O[C@@H]3[C@@H](O)[C@H](N)C[C@H](N)[C@H]3O[C@H]3O[C@H](CN)[C@@H](O)[C@H](O)[C@H]3N)O[C@@H]2Cn2cc(CCCCCCCCC(=O)[*:2])nn2)[C@H](N)[C@@H](O)[C@@H]1O].G.L.L.K.R.I.K.T.L.L.[am]}$$$$V2.0)	16 µM (≈ 31.3 µg/mL)	8 µM (≈ 15.7 µg/mL)	16 µM (≈ 31.3 µg/mL)	32 µM (≈ 62.6 µg/mL)	–	32 µM (≈ 62.6 µg/mL)	–	16 µM (≈ 31.3 µg/mL)	MBC (S. aureus ATCC 29213 [5]; MIC wells diluted in fresh MHB): 16 to 32 µM; MBC (E. coli K12 MG1655 [8]): 8 to 16 µM
NCC[C@H](O)C(=O)N[C@@H]1C[C@H](N)[C@@H](O[C@H]2O[C@H](CN)[C@@H](O)[C@H](O)[C@H]2O)[C@H](O)[C@H]1O[C@H]1O[C@H](CO)[C@@H](O)[C@H](N)[C@H]1O [amikacin (AMK), amikacin, reference compound]	>32 µM	–	–	–	–	–	–	–	MIC (E. coli WR 3551/98 [1]; Escherichia coli, WR3551/98): > 32 µM; MIC (E. coli K12 MG1655 [2]; Escherichia coli): 4 µM (≈ 2.34 µg/mL); MIC (S. aureus ATCC 29213 [3]; [11]): 8 µM (≈ 4.68 µg/mL); MIC ([4]; Staphylococcus aureus): 32 µM (≈ 18.7 µg/mL); MBC (S. aureus ATCC 29213 [5]; [12]): 8 µM (≈ 4.68 µg/mL); MBC ([6]; Staphylococcus aureus): ≥ 32 µM; MBC (E. coli WR 3551/98 [7]; [13]): > 32 µM; MBC (E. coli K12 MG1655 [8]; [14]): 8 to 16 µM (≈ 4.68 to 9.37 µg/mL)
CC[C@H](C)[C@H](NC(=O)[C@H](CCCNC(=N)N)NC(=O)[C@H](CCCCN)NC(=O)[C@H](CC(C)C)NC(=O)[C@H](CC(C)C)NC(=O)CNC(=O)[C@@H](N)CSSC[C@H](N)C(=O)NCC(=O)N[C@@H](CC(C)C)C(=O)N[C@@H](CC(C)C)C(=O)N[C@@H](CCCCN)C(=O)N[C@@H](CCCNC(=N)N)C(=O)N[C@H](C(=O)N[C@@H](CCCCN)C(=O)N[C@H](C(=O)N[C@@H](CC(C)C)C(=O)N[C@@H](CC(C)C)C(N)=O)[C@@H](C)O)[C@@H](C)CC)C(=O)N[C@@H](CCCCN)C(=O)N[C@H](C(=O)N[C@@H](CC(C)C)C(=O)N[C@@H](CC(C)C)C(N)=O)[C@@H](C)O [anoplin-SS-anoplin] (HELM PEPTIDE1{C.G.L.L.K.R.I.K.T.L.L.[am]}|PEPTIDE2{C.G.L.L.K.R.I.K.T.L.L.[am]}$PEPTIDE1,PEPTIDE2,1:R3-1:R3$$$V2.0)	1 µM (≈ 2.51 µg/mL)	4 µM (≈ 10 µg/mL)	16 µM (≈ 40.2 µg/mL)	16 µM (≈ 40.2 µg/mL)	32 µM (≈ 80.4 µg/mL)	32 µM (≈ 80.4 µg/mL)	8 µM (≈ 20.1 µg/mL)	2 µM (≈ 5.02 µg/mL)	MIC enhancement compared to anoplin monomer (E. coli WR 3551/98 [1]; E. coli WR 3551/98): 32 fold
NC[C@@H]1O[C@H](O[C@H]2[C@@H](O)[C@H](O[C@@H]3[C@@H](O)[C@H](N)C[C@H](N)[C@H]3O[C@H]3O[C@H](CN)[C@@H](O)[C@H](O)[C@H]3N)O[C@@H]2CO)[C@H](N)[C@@H](O)[C@@H]1O [neomycin (NEO), neomycin, reference compound]	–	–	–	–	–	–	–	–	MIC (E. coli WR 3551/98 [1]; Escherichia coli, WR3551/98): 4 µM (≈ 2.46 µg/mL); MIC (E. coli K12 MG1655 [2]; Escherichia coli): 4 µM (≈ 2.46 µg/mL); MIC (S. aureus ATCC 29213 [3]; [11]): 1 µM (≈ 0.615 µg/mL); MIC ([4]; Staphylococcus aureus): > 32 µM; MBC (S. aureus ATCC 29213 [5]; [12]): 2 µM (≈ 1.23 µg/mL); MBC ([6]; Staphylococcus aureus): > 32 µM; MBC (E. coli WR 3551/98 [7]; [13]): 8 µM (≈ 4.92 µg/mL); MBC (E. coli K12 MG1655 [8]; [14]): 4 µM (≈ 2.46 µg/mL)
GLLKRIKTLL-NH2 (C-terminus assumed) [anoplin, reference compound]	>32 µM	–	>32 µM	>32 µM	>32 µM	>32 µM	≥32 µM	>32 µM	growth inhibition concentration threshold (S. aureus ATCC 29213 [9]): higher than 128 μM
